ChEMBL document CHEMBL1158594, “Turning off transcription of the bcl-2 gene by stabilizing the bcl-2 promoter quadruplex with quindoline derivatives” (J Med Chem, 2010)
Calls of active or inactive are those of the source. The calls are words filed in the database; no cut-off is given here.

How the values were obtained:
[1] = target: Nucleic Acid; test: Binding affinity to single-strand oligonucleotide Pu39 assessed as formation of G-quadruplex complex after 3 mins by PCR stop assay; type: nucleic-acid assay
[2] = system: Nucleic Acid; test: Binding affinity to human single-strand oligonucleotide Pu39 transfected in human HL60 cells assessed as Bcl-2 transcriptional activation at 0.4 uM after 48 hrs by luciferase reporter gene assay relative to untreated Pu39-construct control; type: cell-based; settings: HL-60
[3] = system: Nucleic Acid; test: Binding affinity to human single-strand oligonucleotide MutPu39 transfected in human HL60 cells assessed as Bcl-2 transcriptional activation at 0.4 uM after 48 hrs by luciferase reporter gene assay relative to untreated Pu39-construct control; type: cell-based; settings: HL-60
[4] = system: Nucleic Acid; test: Binding affinity to human single-strand oligonucleotide MutPu39 transfected in human HL60 cells assessed as Bcl-2 transcriptional activation at 0.4 uM after 48 hrs by luciferase reporter gene assay relative to untreated MutPu39-construct control; type: cell-based; settings: HL-60
[5] = target: Nucleic Acid; test: Binding affinity to Bcl-2 promoter duplex DNA by surface plasmon resonance assay; type: nucleic-acid assay
[6] = system: HL-60; test: Downregulation of Bcl-2 mRNA expression in human HL60 cells at 0.8 uM by RT-PCR analysis; type: functional
[7] = system: HL-60; test: Induction of apoptosis in human HL60 cells assessed as cleavage of 17 kDa procaspase-3 at 0.1 to 1 uM after 4 days by Western blot analysis; type: functional, cell-based
[8] = system: Nucleic Acid; test: Binding affinity to human single-strand oligonucleotide Pu39 transfected in human HL60 cells assessed as reduction of Bcl-2 transcriptional activation at 0.4 uM after 48 hrs by luciferase reporter gene assay; type: cell-based; settings: HL-60
[9] = system: HL-60; test: Cell cycle arrest in human HL60 cells assessed as accumulation at sub-G1 phase at 0.5 uM after 4 days by propidium iodide staining-based flow cytometry; type: functional
[10] = system: HL-60; test: Induction of apoptosis in human HL60 cells assessed as PARP cleavage at 1 uM after 4 days by Western blot analysis; type: functional, cell-based
[11] = system: HL-60; test: Induction of apoptosis in human HL60 cells assessed as cleavage of 35 kDa procaspase-3 at 0.1 to 1 uM after 4 days by Western blot analysis; type: functional, cell-based
[12] = system: HL-60; test: Antiproliferative activity against human HL60 cells assessed as viable cells at 1 uM after 4 days by trypan blue exclusion assay; type: functional; settings: HL-60, 96 h, read-out: Activity
[13] = system: Nucleic Acid; test: Stabilization of single-strand oligonucleotide MidG4 assessed as melting temperature by FRET assay; type: nucleic-acid assay
[14] = system: HL-60; test: Downregulation of Bcl-2 protein expression in human HL60 cells at 0.1 to 1 uM after 4 days by Western blot analysis; type: functional, cell-based
[15] = system: HL-60; test: Downregulation of Bcl-2 mRNA expression in human HL60 cells by RT-PCR analysis; type: functional, cell-based
[16] = system: HL-60; test: Antiproliferative activity against human HL60 cells at 0.1 to 1 uM after 4 days by trypan blue exclusion assay; type: functional, cell-based
[17] = system: HL-60; test: Cell cycle arrest in human HL60 cells assessed as accumulation at sub-G1 phase at 1 uM after 4 days by propidium iodide staining-based flow cytometry; type: functional
[18] = target: Nucleic Acid; test: Binding affinity to Bcl-2 promoter quadruplex DNA by surface plasmon resonance assay; type: nucleic-acid assay
[19] = system: Nucleic Acid; test: Selectivity ratio of Kd for Bcl-2 promoter duplex DNA to Kd for Bcl-2 promoter quadruplex DNA; type: nucleic-acid assay
[20] = system: HL-60; test: Cell cycle arrest in human HL60 cells assessed as accumulation at sub-G1 phase at 0.2 uM after 4 days by propidium iodide staining-based flow cytometry; type: functional
[21] = target: Nucleic Acid; test: Binding affinity to single-strand oligonucleotide MutPu39 assessed as formation of G-quadruplex complex after 3 mins by PCR stop assay; type: nucleic-acid assay
[22] = system: Nucleic Acid; test: Binding affinity to human single-strand oligonucleotide MutPu39 transfected in human HL60 cells assessed as reduction of Bcl-2 transcriptional activation at 0.4 uM after 48 hrs by luciferase reporter gene assay; type: cell-based; settings: HL-60
[23] = system: HL-60; test: Induction of apoptosis in human HL60 cells assessed as cleavage of 17 kDa procaspase-3 at 0.02 to 0.2 uM after 4 days by Western blot analysis; type: functional, cell-based
[24] = system: HL-60; test: Antiproliferative activity against human HL60 cells at 0.02 to 0.2 uM after 4 days by trypan blue exclusion assay; type: functional, cell-based
[25] = system: HL-60; test: Downregulation of Bcl-2 mRNA expression in human HL60 cells at 0.2 uM by RT-PCR analysis; type: functional
[26] = system: HL-60; test: Induction of apoptosis in human HL60 cells assessed as PARP cleavage at 0.2 uM after 4 days by Western blot analysis; type: functional, cell-based
[27] = system: HL-60; test: Downregulation of Bcl-2 protein expression in human HL60 cells at 0.02 to 0.2 uM after 4 days by Western blot analysis; type: functional, cell-based
[28] = system: HL-60; test: Cell cycle arrest in human HL60 cells assessed as accumulation at sub-G1 phase at 0.05 uM after 4 days by propidium iodide staining-based flow cytometry; type: functional
[29] = system: HL-60; test: Cell cycle arrest in human HL60 cells assessed as accumulation at sub-G1 phase at 0.1 uM after 4 days by propidium iodide staining-based flow cytometry; type: functional
[30] = system: HL-60; test: Induction of apoptosis in human HL60 cells assessed as cleavage of 35 kDa procaspase-3 at 0.02 to 0.2 uM after 4 days by Western blot analysis; type: functional, cell-based
[31] = system: HL-60; test: Antiproliferative activity against human HL60 cells assessed as viable cells at 0.2 uM after 4 days by trypan blue exclusion assay; type: functional; settings: HL-60, 96 h, read-out: Activity

Row | Structure (SMILES) | IC50 [1] [nM] | Activity [2] [%] | Activity [3] [%] | Activity [4] [%] | Kd [5] [nM] | inhibition [8] [%] | Tm [13] [°C] | Activity [15] | Kd [18] [nM] | Selectivity ratio [19] | Activity [20] [%] | IC50 [21] [nM] | inhibition [22] [%] | also measured
1 | CN(C)CCCNc1c2ccccc2nc2c1[nH]c1ccc(F)cc12 | 74400 | 70.5 | 156 | 88.3 | 482 | 30 | 65.1 | Dose-dependent effect | 167 | 2.9 | 3 | > 100000 | 12 | Activity [6]: 50%; Activity [7]: inactive; Activity [9]: 6.1%; Activity [10]: Active; Activity [11]: Active; viability at 1 µM [12]: < 25%; Activity [14]: Active; Activity [16]: Active; Activity [17]: 22.3%
2 | OCCNc1c2ccccc2nc2c1[nH]c1ccccc12 | > 100000 | 84.4 | 163 | 92.6 | 3380 |  | 51.5 |  | 1500 | 2.3 |  | > 100000 |  | 
3 | CN(C)CCCNc1c2ccccc2[n+](C)c2c1[nH]c1ccc(F)cc12.[I-] | 1110 | 51.4 | 132 | 74.6 | 269 | 50 | 76.9 | Dose-dependent effect | 31.8 |  | 3.5 | 19700 | 25 | Activity [23]: inactive; Activity [24]: Active; Activity [25]: 50%; Activity [26]: Active; Activity [27]: Active; Activity [28]: 5%; Activity [29]: 23.8%; Activity [30]: Active; viability at 0.2 µM [31]: < 25%
